According to patent publication US8017612B2, “Piperazine compound and use thereof as a HCV polymerase inhibitor” (priority 2006, dated 2011):

Legend:
[1] = target: T1, HCV polymerase (NS5B) type 1a (Hepatitis C virus genotype 1a, UniProt P26664); assay: Assay of enzyme (HCV polymerase) inhibitory activity, type 1a enzyme; format: biochemical, HCV type 1a (cloned from the blood of patients); conditions: HCV polymerase inhibitory activity IC50, 1a, type 1a enzyme
T1 construct: made in house; host or cells: Escherichia coli (by the 'similar method' of the 1b enzyme)
Summary of the method: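 IC50 values derive from radioactivity of newly synthesized RNA with versus without test compound. The enzyme was C-terminally truncated type 1a NS5B, 1.5 μg/ml, run 60 min at 25° C with 3H-UTP-labelled nucleotides.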

[2] = target: T2, HCV polymerase (NS5B) type 1b (Hepatitis C virus genotype 1b, UniProt P26663); assay: Assay of enzyme (HCV polymerase) inhibitory activity, type 1b enzyme; format: biochemical, HCV BK strain (type 1b); conditions: HCV polymerase inhibitory activity IC50, 1b, type 1b enzyme
T2 construct: a region encoding NS5B (J Virol 1991 March, 65(3), 1105-13, 544 amino acids after deletion of 47 amino acids on the C-terminal); 6xHis (C); made in house; host or cells: Escherichia coli
Summary of the method: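 Polymerase activity was followed as radiolabelled UTP incorporation by E. coli-expressed, His-tagged NS5B of HCV type 1b lacking its last 47 residues. Conditions: 2 μM UTP, 50 μM other NTPs, Mg2+ buffer at pH 7.5, 25 °C for 60 min. Inhibition relative to compound-free reactions gave IC50.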

CSc1ccc(CNC(=O)[C@H]2CN(c3cnc4cncnc4n3)CCN2S(=O)(=O)c2ccc(OC(F)(F)F)cc2)cc1 [Example 661, (R)-4-pteridin-7-yl-1-(4-trifluoromethoxy-benzenesulfonyl)-piperazine-2-carboxylic acid 4-methylsulfanyl-benzylamide]
IC50 [1]: < 0.1 µM | IC50 [2]: < 0.1 µM

CCCN1CC=C(CNC(=O)[C@H]2CN(c3cnc4cncnc4n3)CCN2S(=O)(=O)c2ccc(OC(F)(F)F)cc2)CC1 [Example 662, (R)-4-pteridin-7-yl-1-(4-trifluoromethoxy-benzenesulfonyl)-piperazine-2-carboxylic acid (1-propyl-1,2,3,6-tetrahydro-pyridin-4-ylmethyl)-amide]
IC50 [1]: > 1 µM | IC50 [2]: 0.1 to 1 µM

O=C(NCc1ccc(-c2ccccc2)cc1)[C@H]1CN(c2cnc3cncnc3n2)CCN1S(=O)(=O)c1ccc(OC(F)(F)F)cc1 [Example 663, (R)-4-pteridin-7-yl-1-(4-trifluoromethoxy-benzenesulfonyl)-piperazine-2-carboxylic acid (biphenyl-4-ylmethyl)-amide]
IC50 [1]: < 0.1 µM | IC50 [2]: < 0.1 µM

CCC(F)(F)c1ccc(CNC(=O)[C@H]2CN(c3nc4c(=O)[nH]ncc4s3)CCN2S(=O)(=O)c2ccc(OC(F)(F)F)cc2)cc1 [Example 664, (R)-4-(4-oxo-4,5-dihydro-thiazolo[4,5-d]pyridazin-2-yl)-1-(4-trifluoromethoxy-benzenesulfonyl)-piperazine-2-carboxylic acid 4-(1,1-difluoro-propyl)-benzylamide]
IC50 [1]: < 0.1 µM | IC50 [2]: < 0.1 µM

CC(C)(C)c1ccc(CNC(=O)[C@H]2CN(C(=O)/C=C\C(=O)O)CCN2S(=O)(=O)c2ccc(OC(F)(F)F)cc2)cc1 [Example 665, (Z)-4-[(R)-3-(4-tert-butyl-benzylcarbamoyl)-4-(4-trifluoromethoxy-benzenesulfonyl)-piperazin-1-yl]-4-oxo-but-2-enoic acid]
IC50 [1]: > 1 µM | IC50 [2]: > 1 µM

CCC(F)(F)c1ccc(CNC(=O)[C@H]2CN(C(=O)/C=C\C(=O)O)CCN2S(=O)(=O)c2ccc(OC(F)(F)F)cc2)cc1 [Example 666, (Z)-4-[(R)-3-[4-(1,1-difluoro-propyl)-benzylcarbamoyl]-4-(4-trifluoromethoxy-benzenesulfonyl)-piperazin-1-yl]-4-oxo-but-2-enoic acid]
IC50 [1]: > 1 µM | IC50 [2]: > 1 µM

CCC(F)(F)c1ccc(CNC(=O)[C@H]2CN(C(=O)/C=C/C(=O)O)CCN2S(=O)(=O)c2ccc(OC(F)(F)F)cc2)cc1 [Example 667, (E)-4-[(R)-3-[4-(1,1-difluoro-propyl)-benzylcarbamoyl]-4-(4-trifluoromethoxy-benzenesulfonyl)-piperazin-1-yl]-4-oxo-but-2-enoic acid]
IC50 [1]: > 1 µM | IC50 [2]: 0.1 to 1 µM

CC(C)(C)c1ccc(CNC(=O)[C@H]2CN(C(=O)/C=C/C(=O)O)CCN2S(=O)(=O)c2ccc(OC(F)(F)F)cc2)cc1 [Example 668, (E)-4-[(R)-3-(4-tert-butyl-benzylcarbamoyl)-4-(4-trifluoromethoxy-benzenesulfonyl)-piperazin-1-yl]-4-oxo-but-2-enoic acid]
IC50 [1]: > 1 µM | IC50 [2]: > 1 µM

CC(=O)N1CCN(S(=O)(=O)c2ccc(OC(F)(F)F)cc2)[C@@H](C(=O)NC[C@H]2CC[C@H](C(=O)O)CC2)C1 [Example 669, trans-4-({[(R)-4-acetyl-1-(4-trifluoromethoxy-benzenesulfonyl)-piperazine-2-carbonyl]-amino}-methyl)-cyclohexanecarboxylic acid]
IC50 [1]: > 1 µM | IC50 [2]: > 1 µM

CC(=O)N1CCC(CNC(=O)[C@H]2CN(C(C)=O)CCN2S(=O)(=O)c2ccc(OC(F)(F)F)cc2)CC1 [Example 670, (R)-4-acetyl-1-(4-trifluoromethoxy-benzenesulfonyl)-piperazine-2-carboxylic acid (1-acetyl-piperidin-4-ylmethyl)-amide]
IC50 [1]: > 1 µM | IC50 [2]: > 1 µM

COc1ccccc1CCNC(=O)[C@H]1CN(C(C)=O)CCN1S(=O)(=O)c1ccc(OC(F)(F)F)cc1 [Example 671, (R)-4-acetyl-1-(4-trifluoromethoxy-benzenesulfonyl)-piperazine-2-carboxylic acid [2-(2-methoxy-phenyl)-ethyl]-amide]
IC50 [1]: > 1 µM | IC50 [2]: > 1 µM

COc1cccc(CCNC(=O)[C@H]2CN(C(C)=O)CCN2S(=O)(=O)c2ccc(OC(F)(F)F)cc2)c1 [Example 672, (R)-4-acetyl-1-(4-trifluoromethoxy-benzenesulfonyl)-piperazine-2-carboxylic acid [2-(3-methoxy-phenyl)-ethyl]-amide]
IC50 [1]: > 1 µM | IC50 [2]: > 1 µM

COc1ccc(CCNC(=O)[C@H]2CN(C(C)=O)CCN2S(=O)(=O)c2ccc(OC(F)(F)F)cc2)cc1 [Example 673, (R)-4-acetyl-1-(4-trifluoromethoxy-benzenesulfonyl)-piperazine-2-carboxylic acid [2-(4-methoxy-phenyl)-ethyl]-amide]
IC50 [1]: > 1 µM | IC50 [2]: > 1 µM

CC(=O)N1CCN(S(=O)(=O)c2ccc(OC(F)(F)F)cc2)[C@@H](C(=O)NCCc2cccc(O)c2)C1 [Example 674, (R)-4-acetyl-1-(4-trifluoromethoxy-benzenesulfonyl)-piperazine-2-carboxylic acid [2-(3-hydroxy-phenyl)-ethyl]-amide]
IC50 [1]: > 1 µM | IC50 [2]: > 1 µM

CC(=O)N1CCN(S(=O)(=O)c2ccc(OC(F)(F)F)cc2)[C@@H](C(=O)NCCc2ccc(O)cc2)C1 [Example 675, (R)-4-acetyl-1-(4-trifluoromethoxy-benzenesulfonyl)-piperazine-2-carboxylic acid [2-(4-hydroxy-phenyl)-ethyl]-amide]
IC50 [1]: > 1 µM | IC50 [2]: > 1 µM

CCC(F)(F)c1ccc(CNC(=O)[C@H]2CN(c3cnc4[nH]cnc4n3)CCN2S(=O)(=O)c2ccc(OC(F)(F)F)cc2)cc1 [Example 676, (R)-4-(1H-imidazo[4,5-b]pyrazin-5-yl)-1-(4-trifluoromethoxy-benzenesulfonyl)-piperazine-2-carboxylic acid 4-(1,1-difluoro-propyl)-benzylamide]
IC50 [1]: < 0.1 µM | IC50 [2]: < 0.1 µM

CCC(F)(F)c1ccc(CNC(=O)[C@H]2CN(C(=O)NCC(=O)O)CCN2S(=O)(=O)c2ccc(OC(F)(F)F)cc2)cc1 [Example 677, {[(R)-3-[4-(1,1-difluoro-propyl)-benzylcarbamoyl]-4-(4-trifluoromethoxy-benzenesulfonyl)-piperazine-1-carbonyl]-amino}-acetic acid]
IC50 [1]: > 1 µM | IC50 [2]: > 1 µM

CCC(F)(F)c1ccc(CNC(=O)[C@H]2CN(C(=O)CC(=O)O)CCN2S(=O)(=O)c2ccc(OC(F)(F)F)cc2)cc1 [Example 678, 3-[(R)-3-[4-(1,1-difluoro-propyl)-benzylcarbamoyl]-4-(4-trifluoromethoxy-benzenesulfonyl)-piperazin-1-yl]-3-oxo-propionic acid]
IC50 [1]: > 1 µM | IC50 [2]: > 1 µM

CCC(F)(F)c1ccc(CNC(=O)[C@H]2CN(C(=O)C(=O)O)CCN2S(=O)(=O)c2ccc(OC(F)(F)F)cc2)cc1 [Example 679, [(R)-3-[4-(1,1-difluoro-propyl)-benzylcarbamoyl]-4-(4-trifluoromethoxy-benzenesulfonyl)-piperazin-1-yl]-oxo-acetic acid]
IC50 [1]: > 1 µM | IC50 [2]: > 1 µM

CCCn1ccc(CNC(=O)[C@H]2CN(c3cnc4cncnc4n3)CCN2S(=O)(=O)c2ccc(OC(F)(F)F)cc2)cc1=O [Example 680, (R)-4-pteridin-7-yl-1-(4-trifluoromethoxy-benzenesulfonyl)-piperazine-2-carboxylic acid (2-oxo-1-propyl-1,2-dihydro-pyridin-4-ylmethyl)-amide]
IC50 [1]: > 1 µM | IC50 [2]: 0.1 to 1 µM

CCCN1CCC(CNC(=O)[C@H]2CN(C(C)=O)CCN2S(=O)(=O)c2ccc(OC(F)(F)F)cc2)CC1 [Example 681, (R)-4-acetyl-1-(4-trifluoromethoxy-benzenesulfonyl)-piperazine-2-carboxylic acid (1-propyl-piperidin-4-ylmethyl)-amide]
IC50 [1]: > 1 µM | IC50 [2]: > 1 µM

CC(=O)N1CCN(S(=O)(=O)c2ccc(OC(F)(F)F)cc2)[C@@H](C(=O)NCCc2ccccc2O)C1 [Example 682, (R)-4-acetyl-1-(4-trifluoromethoxy-benzenesulfonyl)-piperazine-2-carboxylic acid [2-(2-hydroxy-phenyl)-ethyl]-amide]
IC50 [1]: > 1 µM | IC50 [2]: > 1 µM

CCC(F)(F)c1ccc(CNC(=O)[C@H]2CN(c3cnc4cncnc4n3)CCN2S(=O)(=O)c2ccc(Br)cc2)cc1 [Example 683, (R)-1-(4-bromo-benzenesulfonyl)-4-pteridin-7-yl-piperazine-2-carboxylic acid 4-(1,1-difluoro-propyl)-benzylamide]
IC50 [1]: < 0.1 µM | IC50 [2]: < 0.1 µM

CCC(F)(F)c1ccc(CNC(=O)[C@H]2CN(c3cnc4cc(Br)ccc4n3)CCN2S(=O)(=O)c2ccc(OC(F)(F)F)cc2)cc1 [Example 684, (R)-4-(6-bromo-quinoxalin-2-yl)-1-(4-trifluoromethoxy-benzenesulfonyl)-piperazine-2-carboxylic acid 4-(1,1-difluoro-propyl)-benzylamide]
IC50 [1]: 0.1 to 1 µM | IC50 [2]: 0.1 to 1 µM
